From US11000033B2, “Ketone or oxime compound, and herbicide” (NISSAN CHEMICAL CORPORATION, priority 2014, dated 2021)

Experiments:
Type in all cases: in vivo
beet = test: Test Example 4: effect on crop by soil treatment (symbol f); details: for f: beet, effect on crop grade: application herbicide amount 320 g/ha
Outline: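 Greenhouse culture at 25° C. to 30° C. followed sowing of seed in spots on sterilized diluvial soil with a soil cover close to 1.5 cm thick.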

Scirpus juncoides [1] = test: Test Example 1: herbicidal activity, application before weed generation in submerged conditions (symbol B); details: application herbicide amount 320 g/ha
Outline: (§1)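 Ratings (5: ≥90%, near complete withering; 4: 70–<90%; 3: 40–<70%; 2: 20–<40%; 1: 5–<20%; 0: ≤5%) were assigned 3 weeks after the diluted emulsion was applied to the water surface of freshly sown, submerged pots.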

Alopecurus myosuroides [2] = test: Test Example 5: herbicidal effect by foliage application, plastic box (symbol J); details: 320 g/ha, 3 weeks after application
Outline: (§2)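 Effect is rated 3 weeks after a foliar spray of water-diluted emulsion concentrate at a predetermined herbicide amount. Plants had grown 14 days in a 25° C. to 30° C. greenhouse from seed in sterilized diluvial soil.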

[3] = system: Echinochloa crus-galli var. crus-galli; test: Test Example 5: herbicidal effect by foliage application, plastic box (symbol H); details: 320 g/ha, 3 weeks after application
Outline: as §2

Monochoria vaginalis = test: Test Example 1: herbicidal activity, application before weed generation in submerged conditions (symbol C); details: application herbicide amount 320 g/ha
Outline: as §1

[4] = system: Echinochloa oryzacola Vasing.; test: Test Example 1: herbicidal activity, application before weed generation in submerged conditions (symbol A); details: application herbicide amount 320 g/ha
Outline: as §1

Setaria viridis = test: Test Example 4: herbicidal effect by soil treatment (symbol G); details: application herbicide amount 320 g/ha
Outline: (§3)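 Seeds were sown in sterilized diluvial soil, covered with about 1.5 cm of soil, and the soil surface was sprayed with a water-diluted emulsion of the compound at a predetermined rate. Plants grew in a greenhouse at 25° C. to 30° C.; effects were scored visually 3 weeks after application.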

transplanted rice plant = test: Test Example 1: effect on crop, application before weed generation in submerged conditions (symbol a); details: application herbicide amount 320 g/ha
Outline: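 Alluvial soil pots flooded to 4 cm water, sown with Echinochloa oryzacola, Scirpus juncoides and Monochoria vaginalis, then transplanted with 2.5 leaf stage rice seedlings; pre-emergence application. Greenhouse 25° C. to 30° C.; scored 0–5 by herbicidal ratio 3 weeks after application.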

Chenopodium album = test: Test Example 4: herbicidal effect by soil treatment (symbol O)
Outline: as §3

Scirpus juncoides [5] = test: Test Example 2: herbicidal activity, application during weed generation in submerged conditions (symbol B); details: Table 23; application herbicide amount 320 g/ha; grade 0-5 by criteria of Test Example 1
Outline: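 Weeds emerging under flooded conditions were treated with compound formulated as an emulsion and diluted with water to the intended herbicide amount, poured onto the surface of 4 cm standing water. Seeds had been co-sown in alluvial soil; plants grew at 25° C. to 30° C. and were assessed after 3 weeks.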

soybean = test: Test Example 5: effect on crop by foliage application, plastic box (symbol d); details: 320 g/ha, 3 weeks after application
Outline: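 Crop seed is sown alongside grass and broadleaf weed species in spots in sterilized diluvial soil, then covered to a depth of about 1.5 cm. Plants grow in a greenhouse kept at 25° C. to 30° C.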

Alopecurus myosuroides [6] = test: Test Example 4: herbicidal effect by soil treatment (symbol J)
Outline: as §3

[7] = application herbicide amount 320 g/ha

| Compound | f: beet, effect on crop grade (beet) | Herbicidal effect grade, B: Scirpus juncoides (Scirpus juncoides [1]) | J: Alopecurus myosuroides, herbicidal effect grade (Alopecurus myosuroides [2]) | H: Echinochloa crus-galli var. crus-galli, herbicidal effect grade [3] | Herbicidal effect grade, C: Monochoria vaginalis (Monochoria vaginalis) | Herbicidal effect grade, A: Echinochloa oryzacola Vasing. [4] | G: Setaria viridis, herbicidal effect grade (Setaria viridis) | Effect grade on crop, a: transplanted rice plant (transplanted rice plant) | O: Chenopodium album, herbicidal effect grade (Chenopodium album; [7]) | Herbicidal effect grade, B: Scirpus juncoides (Scirpus juncoides [5]) | d: soybean, effect on crop grade (soybean) | f: beet, effect grade on crop (beet; 320 g/ha) | J: Alopecurus myosuroides, herbicidal effect (criteria 0-5) (Alopecurus myosuroides [2]) | H: Echinochloa crus-galli var. crus-galli, herbicidal effect (criteria 0-5) [3] | J: Alopecurus myosuroides, herbicidal effect grade (Alopecurus myosuroides [6]; 320 g/ha) | O: Chenopodium album, herbicidal effect grade (Chenopodium album; 320 g/ha) | d: soybean, effect on crop (criteria 0-5) (soybean) | J: Alopecurus myosuroides, herbicidal effect grade (Alopecurus myosuroides [6]; [7]) |
| --- | --- | --- | --- | --- | --- | --- | --- | --- | --- | --- | --- | --- | --- | --- | --- | --- | --- | --- |
| CON=C(C)CC1CC(O)=C(c2c(C)cc(-c3ccc(OC)cc3)cc2C)C1=O (mixture of isomers) [6-017] | 0 (Herbicidal ratio of 5% or lower (almost no effect)) | 1 (Herbicidal ratio of 5% or higher and lower than 20%) | 5 (Herbicidal ratio of 90% or more (almost completely withered)) | 5 (Herbicidal ratio of 90% or more (almost completely withered)) | 0 (Herbicidal ratio of 5% or lower (almost no effect)) | 5 (Herbicidal ratio of 90% or more (almost completely withered)) | 5 (Herbicidal ratio of 90% or more (almost completely withered)) | 5 (Herbicidal ratio of 90% or more (almost completely withered)) | 0 (Herbicidal ratio of 5% or lower (almost no effect)) | 3 (Herbicidal ratio of 40% or higher and lower than 70%) | 0 (Herbicidal ratio of 5% or lower (almost no effect)) | – | – | – | – | – | – | – |
| CON=C(C)CC1CC(OC(=O)N2CCCCC2)=C(c2c(C)cc(C)cc2C)C1=O (stereo not drawn) [1-151] | – | 3 (Herbicidal ratio of 40% or higher and lower than 70%) | – | – | 0 (Herbicidal ratio of 5% or lower (almost no effect)) | 5 (Herbicidal ratio of 90% or more (almost completely withered)) | – | 4 (Herbicidal ratio of 70% or higher and lower than 90%) | – | 1 (Herbicidal ratio of 5% or higher and lower than 20%) | – | 0 (Herbicidal ratio of 5% or lower (almost no effect)) | 5 (Herbicidal ratio of 90% or more (almost completely withered)) | 5 (Herbicidal ratio of 90% or more (almost completely withered)) | 5 (Herbicidal ratio of 90% or more (almost completely withered)) | 0 (Herbicidal ratio of 5% or lower (almost no effect)) | 2 (Herbicidal ratio of 20% or higher and lower than 40%) | – |
| Cc1cc(C)c(C2=C(O)CC(CC(=O)CC3CC3)C2=O)c(C)c1 (stereo not drawn) [2-026] | 0 (Herbicidal ratio of 5% or lower (almost no effect)) | 3 (Herbicidal ratio of 40% or higher and lower than 70%) | 4 (Herbicidal ratio of 70% or higher and lower than 90%) | 4 (Herbicidal ratio of 70% or higher and lower than 90%) | 0 (Herbicidal ratio of 5% or lower (almost no effect)) | 3 (Herbicidal ratio of 40% or higher and lower than 70%) | 5 (Herbicidal ratio of 90% or more (almost completely withered)) | 4 (Herbicidal ratio of 70% or higher and lower than 90%) | – | 3 (Herbicidal ratio of 40% or higher and lower than 70%) | 0 (Herbicidal ratio of 5% or lower (almost no effect)) | – | – | – | – | – | – | 3 (Herbicidal ratio of 40% or higher and lower than 70%) |
| CCC(=O)CCC1CC(OC)=C(c2c(C)cc(C)cc2C)C1=O (stereo not drawn) [5-002] | 0 (Herbicidal ratio of 5% or lower (almost no effect)) | 0 (Herbicidal ratio of 5% or lower (almost no effect)) | 0 (Herbicidal ratio of 5% or lower (almost no effect)) | 0 (Herbicidal ratio of 5% or lower (almost no effect)) | 0 (Herbicidal ratio of 5% or lower (almost no effect)) | 0 (Herbicidal ratio of 5% or lower (almost no effect)) | 0 (Herbicidal ratio of 5% or lower (almost no effect)) | 0 (Herbicidal ratio of 5% or lower (almost no effect)) | – | 0 (Herbicidal ratio of 5% or lower (almost no effect)) | 0 (Herbicidal ratio of 5% or lower (almost no effect)) | – | – | – | – | – | – | 0 (Herbicidal ratio of 5% or lower (almost no effect)) |
| CCc1cc(Br)cc(C)c1C1=C(O)CC(CC(C)=NOC)C1=O (stereo not drawn) [6-001] | 0 (Herbicidal ratio of 5% or lower (almost no effect)) | 0 (Herbicidal ratio of 5% or lower (almost no effect)) | 5 (Herbicidal ratio of 90% or more (almost completely withered)) | 5 (Herbicidal ratio of 90% or more (almost completely withered)) | 0 (Herbicidal ratio of 5% or lower (almost no effect)) | 5 (Herbicidal ratio of 90% or more (almost completely withered)) | 5 (Herbicidal ratio of 90% or more (almost completely withered)) | 5 (Herbicidal ratio of 90% or more (almost completely withered)) | – | 0 (Herbicidal ratio of 5% or lower (almost no effect)) | 0 (Herbicidal ratio of 5% or lower (almost no effect)) | – | – | – | – | – | – | 5 (Herbicidal ratio of 90% or more (almost completely withered)) |
| CCc1cc(Br)cc(C)c1C1=C(O)CC(C(C(=O)OC)C(C)=NOC)C1=O (stereo not drawn) [6-002] | 0 (Herbicidal ratio of 5% or lower (almost no effect)) | 0 (Herbicidal ratio of 5% or lower (almost no effect)) | 5 (Herbicidal ratio of 90% or more (almost completely withered)) | 5 (Herbicidal ratio of 90% or more (almost completely withered)) | 0 (Herbicidal ratio of 5% or lower (almost no effect)) | 3 (Herbicidal ratio of 40% or higher and lower than 70%) | 3 (Herbicidal ratio of 40% or higher and lower than 70%) | 3 (Herbicidal ratio of 40% or higher and lower than 70%) | – | 0 (Herbicidal ratio of 5% or lower (almost no effect)) | 0 (Herbicidal ratio of 5% or lower (almost no effect)) | – | – | – | – | – | – | 2 (Herbicidal ratio of 20% or higher and lower than 40%) |
